Test results as given in US6914045B2, “Glycopeptide antibiotics” (Wyeth Holdings Corporation, priority 2001, dated 2005).
≈ marks a conversion by molar mass, not a printed value.

Columns and labels:
Test in all cases: in vitro antibacterial evaluation, MIC by broth dilution
Type in all cases: cell-based
Streptococcus sp. = conditions: broth dilution, 18 hours at 35° C.
In short: (§1)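 Following National Committee for Clinical Laboratory Standards recommendations (M7-A2), susceptibility was measured by dilution in Muller-Hinton II […]. Bacteria were seeded at 5×10^5 CFU/mL against compound concentrations from 64 down to 0.06 μg/mL.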

Staphylococcus sp. = conditions: broth dilution, 18 hours at 35° C.; for MIC Staphylococcus aureus (GC 1131): strain GC 1131
In short: as §1

Escherichia coli = test system: Escherichia coli
In short: as §1

Enterococcus sp. = conditions: broth dilution, 18 hours at 35° C.
In short: as §1

MIC Streptococcus agalactiae (GC 4564) (Streptococcus sp.; Streptococcus agalactiae (GC 4564)): 4 µg/mL (≈ 2.77 µM) | MIC Streptococcus pneumoniae (ATCC 6301) (Streptococcus sp.; Streptococcus pneumoniae (ATCC 6301)): 1 µg/mL (≈ 0.693 µM) | MIC Streptococcus pneumoniae (GC 1894) (Streptococcus sp.; Streptococcus pneumoniae (GC 1894)): 0.5 µg/mL (≈ 0.347 µM) | MIC Streptococcus pneumoniae (GC 4565) (Streptococcus sp.; Streptococcus pneumoniae (GC 4565)): 1 µg/mL (≈ 0.693 µM) | MIC Streptococcus pyogenes (GC 4563) (Streptococcus sp.; Streptococcus pyogenes (GC 4563)): 2 µg/mL (≈ 1.39 µM) | MIC Streptococcus pneumoniae (ATCC 6301) (Streptococcus sp.; strain ATCC 6301): 1 µg/mL (≈ 0.693 µM) | MIC Streptococcus pneumoniae (GC 1894) (Streptococcus sp.; strain GC 1894): 0.5 µg/mL (≈ 0.347 µM) | MIC Streptococcus pyogenes (GC 4563) (Streptococcus sp.; strain GC 4563): 2 µg/mL (≈ 1.39 µM) | MIC Streptococcus agalactiae (GC 4564) (Streptococcus sp.; strain GC 4564): 4 µg/mL (≈ 2.77 µM) | MIC Streptococcus pneumoniae (GC 4565) (Streptococcus sp.; strain GC 4565): 1 µg/mL (≈ 0.693 µM) | MIC Staphylococcus aureus (GC 1131) (Staphylococcus sp.; inoculum 5×10^5 CFU/mL): 8 µg/mL (≈ 5.55 µM) | MIC Staphylococcus aureus (ATCC 29213) (Staphylococcus sp.; strain ATCC 29213): 8 µg/mL (≈ 5.55 µM) | MIC Staphylococcus aureus (GC 1131) (Staphylococcus sp.): 8 µg/mL (≈ 5.55 µM) | MIC Staphylococcus aureus (GC 3051) (Staphylococcus sp.; strain GC 3051): 8 µg/mL (≈ 5.55 µM) | MIC Staphylococcus aureus (GC 3053) (Staphylococcus sp.; strain GC 3053): 16 µg/mL (≈ 11.1 µM) | MIC Staphylococcus aureus (GC 4541) (Staphylococcus sp.; strain GC 4541): 4 µg/mL (≈ 2.77 µM) | MIC Staphylococcus aureus (GC 4542) (Staphylococcus sp.; strain GC 4542): 8 µg/mL (≈ 5.55 µM) | MIC Staphylococcus aureus-SMITH (GC 4543) (Staphylococcus sp.; strain GC 4543): 8 µg/mL (≈ 5.55 µM) | MIC Staphylococcus aureus (GC 4544) (Staphylococcus sp.; strain GC 4544): 8 µg/mL (≈ 5.55 µM) | MIC Staphylococcus aureus (GC 4545) (Staphylococcus sp.; strain GC 4545): 4 µg/mL (≈ 2.77 µM) | MIC Coagulase Negative Staphylococcus (GC 4547) (Staphylococcus sp.; strain GC 4547): 4 µg/mL (≈ 2.77 µM) | MIC Coagulase Negative Staphylococcus (GC 4548) (Staphylococcus sp.; strain GC 4548): 4 µg/mL (≈ 2.77 µM) | MIC Coagulase Negative Staphylococcus (GC 4549) (Staphylococcus sp.; strain GC 4549): 2 µg/mL (≈ 1.39 µM) | MIC Coagulase Negative Staphylococcus (GC 4551) (Staphylococcus sp.; strain GC 4551): 8 µg/mL (≈ 5.55 µM) | MIC Coagulase Negative Staphylococcus (GC 6257) (Staphylococcus sp.; strain GC 6257): 2 µg/mL (≈ 1.39 µM) | MIC Staphylococcus aureus-SMITH (GC 4543) (Staphylococcus sp.; strain SMITH GC 4543): 8 µg/mL (≈ 5.55 µM) | MIC Escherichia coli (ATCC 25922) (Escherichia coli; strain ATCC 25922, 18 hours at 35° C.): >64 µg/mL | MIC Escherichia coli (GC 4559) (Escherichia coli; strain GC 4559, 18 hours at 35° C.): >64 µg/mL | MIC Escherichia coli (GC 4560) (Escherichia coli; strain GC 4560, 18 hours at 35° C.): 2 µg/mL (≈ 1.39 µM) | MIC Enterococcus avium (GC 4558) (Enterococcus sp.; Enterococcus avium (GC 4558)): 32 µg/mL (≈ 22.2 µM) | MIC Enterococcus faecalis (ATCC 29212) (Enterococcus sp.; Enterococcus faecalis (ATCC 29212)): 32 µg/mL (≈ 22.2 µM) | MIC Enterococcus faecalis (GC 2242) (Enterococcus sp.; Enterococcus faecalis (GC 2242)): 16 µg/mL (≈ 11.1 µM) | MIC Enterococcus faecalis (GC 2691) (Enterococcus sp.; Enterococcus faecalis (GC 2691)): 32 µg/mL (≈ 22.2 µM) | MIC Enterococcus faecalis (GC 3059) (Enterococcus sp.; Enterococcus faecalis (GC 3059)): 32 µg/mL (≈ 22.2 µM) | MIC Enterococcus faecalis (GC 4552) (Enterococcus sp.; Enterococcus faecalis (GC 4552)): 32 µg/mL (≈ 22.2 µM) | MIC Enterococcus faecalis (GC 4553) (Enterococcus sp.; Enterococcus faecalis (GC 4553)): 32 µg/mL (≈ 22.2 µM) | MIC Enterococcus faecalis (GC 4554) (Enterococcus sp.; Enterococcus faecalis (GC 4554)): 32 µg/mL (≈ 22.2 µM) | MIC Enterococcus faecalis (GC 6189) (Enterococcus sp.; Enterococcus faecalis (GC 6189)): 64 µg/mL (≈ 44.4 µM) | MIC Enterococcus faecium (GC 2243) (Enterococcus sp.; Enterococcus faecium (GC 2243)): 32 µg/mL (≈ 22.2 µM) | MIC Enterococcus faecium (GC 4556) (Enterococcus sp.; Enterococcus faecium (GC 4556)): 32 µg/mL (≈ 22.2 µM) | MIC Enterococcus faecium (GC 4557) (Enterococcus sp.; Enterococcus faecium (GC 4557)): 8 µg/mL (≈ 5.55 µM) | MIC Enterococcus faecalis (ATCC 29212) (Enterococcus sp.; strain ATCC 29212): 32 µg/mL (≈ 22.2 µM) | MIC Enterococcus faecalis (GC 2242) (Enterococcus sp.; strain GC 2242): 16 µg/mL (≈ 11.1 µM) | MIC Enterococcus faecium (GC 2243) (Enterococcus sp.; strain GC 2243): 32 µg/mL (≈ 22.2 µM) | MIC Enterococcus faecalis (GC 2691) (Enterococcus sp.; strain GC 2691): 32 µg/mL (≈ 22.2 µM) | MIC Enterococcus faecalis (GC 3059) (Enterococcus sp.; strain GC 3059): 32 µg/mL (≈ 22.2 µM) | MIC Enterococcus faecalis (GC 4552) (Enterococcus sp.; strain GC 4552): 32 µg/mL (≈ 22.2 µM) | MIC Enterococcus faecalis (GC 4553) (Enterococcus sp.; strain GC 4553): 32 µg/mL (≈ 22.2 µM) | MIC Enterococcus faecalis (GC 4554) (Enterococcus sp.; strain GC 4554): 32 µg/mL (≈ 22.2 µM) | MIC Enterococcus faecium (GC 4556) (Enterococcus sp.; strain GC 4556): 32 µg/mL (≈ 22.2 µM) | MIC Enterococcus faecium (GC 4557) (Enterococcus sp.; strain GC 4557): 8 µg/mL (≈ 5.55 µM) | MIC Enterococcus avium (GC 4558) (Enterococcus sp.; strain GC 4558): 32 µg/mL (≈ 22.2 µM) | MIC Enterococcus faecalis (GC 6189) (Enterococcus sp.; strain GC 6189): 64 µg/mL (≈ 44.4 µM)
SMILES: Cc1cc(C2OCC3OC(OC4C(CO)OC(Oc5ccc(CC6NC(=O)C(C(C)c7ccccc7)NC(=O)CNC(=O)C(CO)NC(=O)C(C(O)C7CNC(=N)N7C7OC(CO)C(O)C(O)C7O)NC(=O)C(C(O)C7CNC(=N)N7)NC6=O)cc5)C(O)C4O)C(O)C(O)C3O2)ccc1[N+](=O)[O-] (stereo not drawn) [Example 151]
MIC Staphylococcus haemolyticus (GC 4546) (Staphylococcus sp.; strain GC 4546): 2 µg/mL (≈ 1.39 µM)
